Assay results taken from ChEMBL document CHEMBL3425421, “Chromone derivatives from a sponge-derived strain of the fungus Corynespora cassiicola” (J Nat Prod, 2015).
Active and inactive are the calls of the source.

Experiments:
[1] = tested on: HL-60; assay: Cytotoxicity against human HL60 cells by MTT assay; type: functional, cell-based
[2] = tested on: A549; assay: Cytotoxicity against human A549 cells by MTT assay; type: functional, cell-based
[3] = tested on: HeLa; assay: Cytotoxicity against human HeLa cells by MTT assay; type: functional, cell-based
[4] = tested on: K562; assay: Cytotoxicity against human K562 cells by MTT assay; type: functional, cell-based
[5] = tested on: Bacillus cereus; assay: Antibacterial activity against Bacillus cereus assessed as absence of growth after 18 hrs by conventional broth dilution assay; type: functional, organism-based
[6] = tested on: Bacillus subtilis; assay: Antibacterial activity against Bacillus subtilis assessed as absence of growth after 18 hrs by conventional broth dilution assay; type: functional, organism-based
[7] = tested on: Tetragenococcus halophilus; assay: Antibacterial activity against Tetragenococcus halophilus assessed as absence of growth after 18 hrs by conventional broth dilution assay; type: functional
[8] = tested on: Staphylococcus; assay: Antibacterial activity against Staphylococcus albus assessed as absence of growth after 18 hrs by conventional broth dilution assay; type: functional, organism-based
[9] = tested on: Staphylococcus aureus; assay: Antibacterial activity against Staphylococcus aureus assessed as absence of growth after 18 hrs by conventional broth dilution assay; type: functional, organism-based
[10] = tested on: Pseudomonas putida; assay: Antibacterial activity against Pseudomonas putida assessed as absence of growth after 18 hrs by conventional broth dilution assay; type: functional, organism-based
[11] = tested on: Vibrio parahaemolyticus; assay: Antibacterial activity against Vibrio parahaemolyticus assessed as absence of growth after 18 hrs by conventional broth dilution assay; type: functional, organism-based
[12] = target: Acetylcholinesterase (Electrophorus electricus) (UniProt O42275); assay: Inhibition of electric eel AChE using acetylthiocholine iodide as substrate by Ellman's method
[13] = target: T1, DNA topoisomerase (Bos taurus) (UniProt A0JN73); assay: Inhibition of calf thymus Topoisomerase 1 relaxation activity by plasmid relaxation assay
T1 sequence (whole entry): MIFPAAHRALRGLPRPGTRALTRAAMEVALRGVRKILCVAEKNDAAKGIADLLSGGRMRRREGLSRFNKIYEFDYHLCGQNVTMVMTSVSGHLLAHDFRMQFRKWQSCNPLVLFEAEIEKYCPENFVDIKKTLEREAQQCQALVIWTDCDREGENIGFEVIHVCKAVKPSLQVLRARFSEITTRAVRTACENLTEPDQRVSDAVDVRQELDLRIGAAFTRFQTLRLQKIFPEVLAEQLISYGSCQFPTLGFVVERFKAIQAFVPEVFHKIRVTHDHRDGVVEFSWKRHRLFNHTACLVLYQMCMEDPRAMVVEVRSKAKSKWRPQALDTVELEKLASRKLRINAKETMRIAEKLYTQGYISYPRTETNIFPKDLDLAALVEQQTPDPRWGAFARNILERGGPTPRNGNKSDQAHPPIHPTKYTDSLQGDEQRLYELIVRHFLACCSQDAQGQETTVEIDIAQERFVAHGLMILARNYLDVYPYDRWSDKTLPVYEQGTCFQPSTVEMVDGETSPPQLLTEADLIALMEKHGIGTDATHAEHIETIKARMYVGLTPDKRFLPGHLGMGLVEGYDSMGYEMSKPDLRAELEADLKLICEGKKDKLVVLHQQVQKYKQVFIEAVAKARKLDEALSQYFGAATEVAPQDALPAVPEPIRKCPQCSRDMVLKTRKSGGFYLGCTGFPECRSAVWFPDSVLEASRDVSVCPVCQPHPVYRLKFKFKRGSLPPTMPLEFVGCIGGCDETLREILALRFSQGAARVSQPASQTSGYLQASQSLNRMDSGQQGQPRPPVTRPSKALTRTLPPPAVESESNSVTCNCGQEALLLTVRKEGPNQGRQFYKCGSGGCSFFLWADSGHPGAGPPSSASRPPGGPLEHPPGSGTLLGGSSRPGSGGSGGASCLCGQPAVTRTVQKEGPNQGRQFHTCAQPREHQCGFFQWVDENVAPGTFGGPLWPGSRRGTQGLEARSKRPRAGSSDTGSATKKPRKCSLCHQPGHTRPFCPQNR

[14] = tested on: Amphibalanus amphitrite; assay: Antifouling activity against Balanus amphitrite Darwin; type: functional, organism-based

Measured: inhibition

Chain of Acetylcholinesterase (Electrophorus electricus) (O42275 24-633 limits assumed): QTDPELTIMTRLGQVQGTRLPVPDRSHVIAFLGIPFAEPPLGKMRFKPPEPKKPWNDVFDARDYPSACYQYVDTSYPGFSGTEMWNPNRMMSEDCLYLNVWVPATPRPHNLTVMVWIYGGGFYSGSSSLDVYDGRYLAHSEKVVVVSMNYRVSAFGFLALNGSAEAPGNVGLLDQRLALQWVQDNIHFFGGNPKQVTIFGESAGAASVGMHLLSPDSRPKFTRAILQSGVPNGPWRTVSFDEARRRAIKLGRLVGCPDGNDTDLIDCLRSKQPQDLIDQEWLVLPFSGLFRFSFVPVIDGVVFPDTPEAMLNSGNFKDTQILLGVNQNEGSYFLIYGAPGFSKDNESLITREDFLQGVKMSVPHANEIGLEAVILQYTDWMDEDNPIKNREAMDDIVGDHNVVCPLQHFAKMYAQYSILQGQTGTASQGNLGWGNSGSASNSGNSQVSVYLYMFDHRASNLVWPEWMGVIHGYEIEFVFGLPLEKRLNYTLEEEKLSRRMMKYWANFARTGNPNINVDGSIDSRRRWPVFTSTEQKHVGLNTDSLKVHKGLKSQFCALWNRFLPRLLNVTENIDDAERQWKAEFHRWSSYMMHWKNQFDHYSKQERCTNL

CCOC(=O)Cc1cc(O)cc2oc(C)cc(=O)c12
inactive: all assays above

CC(C)COC(=O)Cc1cc(O)cc2c1C(=O)C[C@@H](C[C@H](C)O)O2
inactive: all assays above

CC(C)COC(=O)Cc1cc(O)cc2c1C(=O)C[C@H](C[C@H](C)O)O2
inactive: all assays above

CCOC(=O)Cc1cc(O)cc2c1C(=O)C[C@@H](C[C@H](C)O)O2
inactive: all assays above

CC(=O)C[C@H]1CC(=O)c2c(CC(=O)O)cc(O)cc2O1
inactive: all assays above

C[C@H](O)C[C@@H]1CC(=O)c2c(CC(=O)O)cc(O)cc2O1
inactive: all assays above

CCOC(=O)Cc1cc(O)cc2oc(/C=C/C[C@H](C)O)cc(=O)c12
inactive: all assays above

CCOC(=O)Cc1cc(O)cc2c1C(=O)C[C@H](C[C@H](C)O)O2
inactive: all assays above

Cc1cc(=O)c2c(CC(=O)OCC(C)C)cc(O)cc2o1
inactive: all assays above

COc1c(O)cc(CC(=O)O)c2c1O[C@H](C[C@H](C)O)CC2=O
inactive: all assays above

COc1c(O)cc(CC(=O)O)c2c1O[C@@H](C[C@H](C)O)CC2=O
inactive: all assays above
